Data on eleven compounds can be found in patent EP3057949B1, “SECONDARY ALCOHOL QUINOLINYL MODULATORS OF ROR GAMMA T” (Janssen Pharmaceutica NV, priority 2013, dated 2015).

Assay [1] has as its target T1, human RORγt ligand binding domain (RORγt LBD) (Homo sapiens, UniProt P51449).
T1 construct: His-tag (N); TurboTEV protease cleavage site (ENLYFQG) (N); made in house; host or cells: E. coli (pHIS1, modified pET vector)
T1 sequence (P51449 258-518): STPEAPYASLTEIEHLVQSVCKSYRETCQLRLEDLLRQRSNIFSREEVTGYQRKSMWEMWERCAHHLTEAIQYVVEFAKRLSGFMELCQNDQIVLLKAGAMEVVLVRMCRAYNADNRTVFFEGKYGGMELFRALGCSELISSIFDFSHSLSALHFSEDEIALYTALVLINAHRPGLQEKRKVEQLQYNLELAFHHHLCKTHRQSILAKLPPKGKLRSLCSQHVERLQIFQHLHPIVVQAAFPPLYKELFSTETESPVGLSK
The experiment in a line: ThermoFluor® Assay (RORγt thermal shift binding). The conditions noted are these: 0.065 mg/mL RORγt, 60 µM 1,8-ANS, pH 7.0; estimated from concentration response curves. As to the method: This approach is applicable to a wide variety of systems, and rigorous in theoretical interpretation through quantitation of equilibrium binding constants (KD).
The shift in the melting point described as a ΔTm is proportional to the concentration and affinity of the ligand. The compound potency may be compared as a rank order of either ATm values at a single compound concentration or in terms of KD values, estimated from concentration response curves.
ThermoFluor® experiments were carried out using instruments owned by Janssen Research and Discovery, L.L.C. through its acquisition of 3-Dimensional Pharmaceuticals, Inc. 1,8-ANS (Invitrogen) was used as a fluorescent dye. Protein and compound solutions are dispensed into black 384-well polypropylene PCR microplates (Abgene) and overlayed with silicone oil (1 µL, Fluka, type DC 200) to prevent evaporation.
Bar-coded assay plates are robotically loaded onto a thermostatically controlled PCR-type thermal block and then heated at a typical ramp-rate of 1 °C/minute for all experiments. Fluorescence was measured by continuous illumination with UV light (Hamamatsu LC6) supplied via fiber optic and filtered through a band-pass filter (380-400 nm; >6 OD cutoff). Fluorescence emission of the entire 384-well plate was detected by measuring light intensity using a CCD camera (Sensys, Roper Scientific) filtered to detect 500 ± 25 nm, resulting in simultaneous and independent readings of all 384 wells. Images were collected at each temperature, and the sum of the pixel intensity in a given area of the assay plate was recorded versus temperature. Reference wells contained RORyt without compounds, and the assay conditions were as follows: • 0.065 mg/mL RORγt • 60 µM 1,8-ANS • 100 mM Hepes, pH 7.0 • 10 mM NaCl • 2.5 mM GSH • 0.002% Tween-20
Project compounds were arranged in a pre-dosed mother plate (Greiner Bio-one) wherein compounds are serially diluted in 100% DMSO by 1:2 from a high concentration of 10 mM over 12 columns within a series (column 12 is a reference well containing DMSO, no compound). The compounds were robotically dispensed directly into assay plates (1x = 46 nL) using a Hummingbird capillary liquid handling instrument (Digilab). Following compound dispense, protein and dye in buffer was added to achieve the final assay volume of 3 µL, followed by 1 µL of silicone oil.

The target in the next assay is T2, full-length human RORγt (Homo sapiens, UniProt P51449).
T2 construct: expressed in transfected cells; host or cells: HEK293T
T2 sequence (P51449 1-497 isoform P51449-2): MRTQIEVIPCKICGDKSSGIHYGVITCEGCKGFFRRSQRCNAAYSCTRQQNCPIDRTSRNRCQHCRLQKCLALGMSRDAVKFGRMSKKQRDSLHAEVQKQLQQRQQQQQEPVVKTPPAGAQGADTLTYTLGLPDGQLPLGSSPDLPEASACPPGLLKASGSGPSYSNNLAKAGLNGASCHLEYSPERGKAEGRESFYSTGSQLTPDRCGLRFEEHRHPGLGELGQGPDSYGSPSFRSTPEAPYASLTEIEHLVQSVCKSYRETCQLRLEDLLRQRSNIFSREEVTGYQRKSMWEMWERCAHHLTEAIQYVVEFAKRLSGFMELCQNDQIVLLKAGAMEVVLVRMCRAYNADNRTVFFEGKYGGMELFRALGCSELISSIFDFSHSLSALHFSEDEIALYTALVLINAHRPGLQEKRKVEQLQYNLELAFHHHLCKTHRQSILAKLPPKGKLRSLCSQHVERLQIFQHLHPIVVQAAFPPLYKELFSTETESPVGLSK
Briefly: RORγt (full-length human) Reporter Assay (GAL4 luciferase, HEK293T cells). Type of assay: cell-based. As to conditions: for IC50: overnight (16 to 20 hours) incubation, read-out: RORγt (FL) Reporter Assay, IC50. As to the method:
(§1) Compounds were assessed for RORgt functional modulation using either the RORgt ligand binding domain (LBD) reporter assay, or the RORgt full-length (FL) reporter assay.
A reporter assay was used to test functional activity of RORγt modulatory compounds on transcriptional activation driven by full-length human RORγt. Cells used in this assay were transiently co-transfected with three different plasmids, one expressing the GAL4-DNA binding domain (DBD)-RORγt fusion protein under control of a CMV promoter (NH2-Gal4-DBD:RORC-COOH in pCMV-BD, Stratagene #211342), and two reporter plasmids - the firefly luciferase reporter under control of a GAL4 promoter (pFR-Luc 2x GAL4) and Renilla luciferase reporter under control of CMV promoter (pRL-CMV, Promega #E2261). The full-length coding sequence was used for human RORγt, i.e., nucleotides 142-1635 of human RORγt, transcript variant 2, NCBI Accession: NM_001001523.1 (SEQ ID NO:1). HEK293T cells were plated at 35000 per well in 96-well plate in medium of MEM with 8.6% FBS. After 18-22 hours incubation, the transfection was carried out by using a PEI solution with 170.5 ng total DNA/well (50 ng pCMV-BD-ROR plus 20 ng of pFR-Luc reporter and 0.5 ng of pRL-CMV reporter plus 100 ng Carrier DNA (Clontech # 630440) for each well). 4-6 hours after transfection, cells were treated with compounds for overnight in the medium with final concentration of FBS 1.1% and DMSO 0.1%. After overnight (16 to 20 hours) incubation, media were removed and cells were lysed with 20 µL 1x Passive Lysis Buffer (Promega) for 10-15 minutes. Luminescence was measured using a BMG LUMIstar OPTIMA plate reader, after addition of 75 µL/well firefly luciferase buffer, followed by 75 µL/well Renilla luciferase buffer. To calculate the effect of compounds on RORγt activity, firefly values were normalized against values of DMSO only and values of reference compound at saturating concentration, then further normalized against Renilla signals. IC50s were generated by plotting final Renilla normalized data against compound concentration and percent inhibition was calculated against DMSO control.
For orientation: A reporter such as luciferase makes a cellular process visible.

The target of another assay is T3, human RORγt LBD (Homo sapiens, UniProt P51449).
T3 construct: expressed in transfected cells; host or cells: HEK293T
T3 sequence (P51449 258-518): T1 sequence (P51449 258-518)
Briefly: RORγt (LBD) Reporter Assay (GAL4 luciferase, HEK293T cells). The assay is classed as cell-based. The conditions noted are these: for inhibition at 6 µM: HEK-293T, 6 µM compound; for IC50: compounds for 24 hours. As to the method: as §1
A reporter assay was used to test functional activity of RORγt modulatory compounds on transcriptional activation driven by the RORγt LBD. Cells used in the assay were co-transfected with two constructs. The first construct, pBIND-RORγt LBD, contained the wild type human RORγt LBD fused to the DNA binding domain of the GAL4 protein. The second construct, pGL4.31 (Promega Cat no. C935A), contained multiple GAL4 responsive DNA elements upstream of firefly luciferase. […] The mutant construct was called pBIND-RORγt-AF2.
The pBIND vector contains the GAL4 DNA Binding Domain (GAL4 DBD) and the renilla luciferase gene under control of the SV40 promoter. Renilla luciferase expression serves as a control for transfection efficiency and cell viability.
The reporter assay was performed by transiently transfecting HEK293T cells with 5 µg of pBIND-RORγt LBD or pBIND-RORγt LBD-AF2 and 5 µg pGL4.31 (Promega Cat no. C935A) using Fugene 6 (Invitrogen Cat no. E2691) at a 1:6 ratio of DNA: Fugene 6 in a T-75 flask in which cells were at least 80% confluent. Twenty four hours after bulk transfection, cells were plated into 96-well plates at 50,000 cells/well in phenol-red free DMEM containing 5% Lipid Reduced FCS and Pen/Strep. Six hours after plating, cells were treated with compounds for 24 hours. Media was removed and cells were lysed with 50 µL 1x Glo Lysis Buffer (Promega). Dual Glo Luciferase Reagent (50 µL/well) was then added and firefly luciferase luminescence was read on an Envision after a ten minute incubation. Finally, Stop and Glo reagent (50 µL/well) was added and renilla luciferase luminescence was read on an Envision after a ten minute incubation. To calculate the effect of compounds on RORγt activity, the ratio of firefly to renilla luciferase was determined and plotted against compound concentration. Agonist compounds increase RORγt-driven luciferase expression, and antagonist or inverse agonist compounds decrease luciferase expression.

Structures can show the parent of a compound that is named as a salt. A value given as a limit tells only on which side of the number the result lay.

Regarding `COc1nc2ccc(C(O)c3c(C)noc3C)cc2c(Cl)c1Cc1ccc(C(F)(F)F)cc1` (single isomer, unassigned) [Example 20c, (4-Chloro-2-methoxy-3-(4-(trifluoromethyl)benzyl)quinolin-6-yl)(3,5-dimethylisoxazol-4-yl)methanol], the dissociation constant Kd in assay [1] is 22 nM. Further, the “RORγt (FL) Reporter Assay, % inhibition @ 2 µM” value at full-length human RORγt (2 µM compound, 2 µM) was 99%. Moreover, at full-length human RORγt, the IC50 came to 23 nM.

With `COc1nc2ccc(C(O)c3c(C)noc3C)cc2c(Cl)c1Cc1ccc(C(F)(F)F)cc1` (centres unmarked) [Example 20a, (4-Chloro-2-methoxy-3-(4-(trifluoromethyl)benzyl)quinolin-6-yl)(3,5-dimethylisoxazol-4-yl)methanol], the Kd in assay [1] was 86 nM. Moreover, the inhibition at 2 µM on full-length human RORγt (HEK-293T, 2 µM compound, read-out: RORγt (FL) Reporter Assay, % inhibition @ 2 µM) was 97%. Moreover, the IC50 at full-length human RORγt came to 52 nM.

For the compound `COc1nc2ccc(C(O)c3oc(C)nc3C)cc2c(Cl)c1Cc1ccc(C(F)(F)F)cc1` (centres unmarked) [Example 19, (4-Chloro-2-methoxy-3-(4-(trifluoromethyl)benzyl)quinolin-6-yl)(2,4-dimethyloxazol-5-yl)methanol], the Kd in assay [1] is 350 nM. Moreover, on human RORγt LBD, the inhibition at 6 µM is 79% and inhibition was half-maximal at 240 nM (IC50).

Consider `COc1nc2ccc(C(O)c3ccc(C)nc3C)cc2cc1Cc1ccc(C(F)(F)F)cc1` (centres unmarked) [Example 16, (2,6-Dimethylpyridin-3-yl)(2-methoxy-3-(4-(trifluoromethyl)benzyl)quinolin-6-yl)methanol], for which, in assay [1], the Kd is 4800 nM. In addition, at human RORγt LBD, the inhibition at 6 µM came to 88% and the half-inhibitory concentration (IC50) was determined as 1900 nM.

Regarding `COc1nc2ccc(C(O)c3cnc(C)n3C)cc2c(Cl)c1Cc1ccc(F)cc1` (centres unmarked) [Example 8a], the Kd in assay [1] is 180 nM. For the same compound, the inhibition at 6 µM against human RORγt LBD amounted to 40%.

As for `Cn1cncc1C(O)c1ccc2nc(Cl)c(Cc3ccc(-n4cccn4)cc3)c(Cl)c2c1` (centres unmarked) [Example 7, (3-(4-(1H-Pyrazol-1-y1)benzyl)-2,4-dichloroquinolin-6-yl)(1-methyl-1H-imidazol-5-yl)methanol], the Kd in assay [1] was 480 nM. Moreover, at human RORγt LBD, the inhibition at 6 µM is 93% and the concentration for half-maximal inhibition (IC50) was around 2000 nM.

In the case of `COc1nc2c(C)cc(C(O)c3cncn3C)cc2c(Cl)c1Cc1ccc(-n2cccn2)cc1` (centres unmarked) [Example 12, (3-(4-(1H-Pyrazol-1-yl)benzyl)-4-chloro-2-methoxy-8-methylquinolin-6-yl)(1-methyl-1H-imidazol-5-yl)methanole•TFA], in assay [1], the Kd is 600 nM. On human RORγt LBD, the inhibition at 6 µM came out at 92% and the 50% inhibitory concentration (IC50) was around 1000 nM.

For the compound `COc1nc2ccc(C(O)C3CN(C(=O)OC(C)(C)C)C3)cc2c(Cl)c1Cc1ccc(C(F)(F)F)cc1` (centres unmarked) [Example 32, tert-Butyl-3-((4-chloro-2-methoxy-3-(4-(trifluoromethyl)benzyl)quinolin-6-yl)(hydroxy)methyl)azetidine-1-carboxylate], in assay [1], the Kd was 16000 nM. For the same compound, on human RORγt LBD, the inhibition at 6 µM came out at 84% and inhibition was half-maximal at 2200 nM (IC50).

Consider `Cc1cc(C(O)c2cncn2C)cc2c(Cl)c(-c3ccccc3)c(Cl)nc12` (centres unmarked) [Example 4, (2,4-Dichloro-8-methyl-3-phenylquinolin-6-yl)(1-methyl-1H-imidazol-5-yl)methanol•TFA], for which the Kd in assay [1] was 4900 nM. Also, on human RORγt LBD, the inhibition at 6 µM was -1% and the IC50 was above 6000 nM.

`Cc1ncc(C(O)c2ccc3nc(N4CCC4)c(Cc4ccc(C(F)(F)F)cc4)c(Cl)c3c2)n1C` (centres unmarked) [Example 22a, {2-Azetidin-1-yl-4-chloro-3-[4-(trifluoromethyl)benzyl]quinolin-6-yl}(1,2-dimethyl-1H-imidazol-5-yl)methanol]: in assay [1], the Kd is 81 nM. Further, at human RORγt LBD, the inhibition at 6 µM turned out to be 92% and the IC50 stood at 250 nM.

With `OC(c1ccc(Cl)cc1)c1ccc2nc(Cl)c(-c3ccccc3Cl)c(Cl)c2c1` (centres unmarked) [Example 26, (4-Chlorophenyl)(2,4-dichloro-3-(2-chlorophenyl)quinolin-6-yl)methanol], the Kd in assay [1] was 1400 nM. Besides, on human RORγt LBD, the inhibition at 6 µM amounted to 68% and the IC50 is around 3000 nM.

As a reminder, the Kd is a measure of binding affinity in units of concentration. For orientation: IC50 means the concentration that inhibits the measured activity by half. The inhibition is the relative decrease from the control value, in per cent.
